Test results from US20080009418A1, “Selective Inhibitors” (Alchemia LTD., priority 2004, published 2008).

Columns and labels:
Human μ-opioid (MOP) = biological target: T1, Human μ-opioid (MOP) (Homo sapiens, UniProt P35372); test: Radioligand binding, human μ-opioid (MOP) membranes, FlashPlate, [3H]-Naloxone; settings: compound at 10 μM, [3H]-Naloxone
T1 construct: purchased Perkin Elmer Biosignal
Outline: (§1)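 Cloned human receptor membranes were coated onto FlashPlate wells and incubated with radioligand and compound (added from a 0.5 mM DMSO daughter plate) for 1 hour at room temperature in the dark. Scintillation counting gave percent inhibition, with DMSO defining total and reference ligand defining non-specific binding.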

Human δ-opioid (DOP) = biological target: T2, Human δ-opioid (DOP) (Homo sapiens, UniProt P41143); test: Radioligand binding, human δ-opioid (DOP) membranes, FlashPlate, [3H]-Bremazocine; settings: compound at 10 μM, [3H]-Bremazocine
T2 construct: purchased Perkin Elmer Biosignal
T2 sequence (P41143 whole entry): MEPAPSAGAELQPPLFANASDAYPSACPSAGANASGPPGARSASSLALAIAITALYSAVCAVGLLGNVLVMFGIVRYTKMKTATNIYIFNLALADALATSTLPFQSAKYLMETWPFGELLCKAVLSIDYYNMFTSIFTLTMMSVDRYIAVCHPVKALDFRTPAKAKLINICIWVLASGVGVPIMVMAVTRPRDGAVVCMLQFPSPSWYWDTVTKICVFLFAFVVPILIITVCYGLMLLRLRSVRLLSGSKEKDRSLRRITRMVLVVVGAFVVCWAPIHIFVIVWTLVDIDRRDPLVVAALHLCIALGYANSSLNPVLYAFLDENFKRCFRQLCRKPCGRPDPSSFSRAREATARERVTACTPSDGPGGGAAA
Outline: as §1

[1] = biological target: T3, Human melanin-concentrating hormone (MCH1) (Homo sapiens, UniProt Q99705); test: Radioligand binding, human melanin-concentrating hormone MCH1 membranes, FlashPlate, [125I]-S36057; settings: compound at 10 μM; for A6: inhibition of radioligand binding, human melanin-concentrating hormone (MCH1): [125I]-S36057
T3 construct: purchased Perkin Elmer Biosignal
T3 sequence (Q99705 whole entry): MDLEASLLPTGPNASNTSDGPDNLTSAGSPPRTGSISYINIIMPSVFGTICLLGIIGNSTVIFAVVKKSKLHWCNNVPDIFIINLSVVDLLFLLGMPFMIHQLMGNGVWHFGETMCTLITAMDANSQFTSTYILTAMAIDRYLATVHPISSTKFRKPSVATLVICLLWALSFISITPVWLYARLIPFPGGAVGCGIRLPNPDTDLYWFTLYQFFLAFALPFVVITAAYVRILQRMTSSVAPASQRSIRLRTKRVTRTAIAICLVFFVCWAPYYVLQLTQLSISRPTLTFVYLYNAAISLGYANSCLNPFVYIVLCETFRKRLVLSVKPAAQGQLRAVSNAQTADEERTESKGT
Outline: as §1

Human Melanocortin (MC4) = biological target: T4, Human Melanocortin (MC4) (Homo sapiens, UniProt P32245); test: Radioligand binding, human melanocortin MC4 membranes, FlashPlate, [125I]-NDP-αMSH; settings: compound at 10 μM, [125I]-NDP-αMSH
T4 construct: purchased Perkin Elmer Biosignal
T4 sequence (P32245 whole entry): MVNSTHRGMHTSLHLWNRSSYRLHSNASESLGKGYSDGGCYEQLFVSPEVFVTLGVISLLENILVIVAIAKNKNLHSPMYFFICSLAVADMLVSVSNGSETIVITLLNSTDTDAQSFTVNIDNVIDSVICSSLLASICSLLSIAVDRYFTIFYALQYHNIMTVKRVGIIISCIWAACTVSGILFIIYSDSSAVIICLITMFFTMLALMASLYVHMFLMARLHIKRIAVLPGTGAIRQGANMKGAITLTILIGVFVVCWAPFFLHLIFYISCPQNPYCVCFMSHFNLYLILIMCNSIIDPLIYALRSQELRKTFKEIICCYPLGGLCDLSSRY
Outline: as §1

Human melanocortin (MC5) = biological target: T5, Human melanocortin (MC5) (Homo sapiens, UniProt P33032); test: Radioligand binding, human melanocortin MC5 membranes, FlashPlate, [125I]-NDP-αMSH; settings: compound at 10 μM, [125I]-NDP-αMSH
T5 construct: purchased Perkin Elmer Biosignal
T5 sequence (P33032 whole entry): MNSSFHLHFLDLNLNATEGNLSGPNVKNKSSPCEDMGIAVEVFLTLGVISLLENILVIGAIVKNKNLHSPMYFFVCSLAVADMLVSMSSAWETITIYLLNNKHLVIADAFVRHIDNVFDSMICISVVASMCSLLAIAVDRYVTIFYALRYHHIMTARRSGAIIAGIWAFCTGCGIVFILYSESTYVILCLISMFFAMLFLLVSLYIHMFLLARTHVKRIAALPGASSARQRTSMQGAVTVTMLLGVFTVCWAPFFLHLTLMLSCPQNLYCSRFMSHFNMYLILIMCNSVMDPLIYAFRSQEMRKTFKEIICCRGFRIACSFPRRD
Outline: as §1

[2] = biological target: T6, Human neuropeptide Y (NPY-Y1) (Homo sapiens, UniProt P25929); test: Radioligand binding, human neuropeptide Y NPY-Y1 membranes, FlashPlate, [125I]-PYY; settings: compound at 10 μM, [125I]-PYY
T6 construct: purchased Perkin Elmer Biosignal
T6 sequence (P25929 1-384): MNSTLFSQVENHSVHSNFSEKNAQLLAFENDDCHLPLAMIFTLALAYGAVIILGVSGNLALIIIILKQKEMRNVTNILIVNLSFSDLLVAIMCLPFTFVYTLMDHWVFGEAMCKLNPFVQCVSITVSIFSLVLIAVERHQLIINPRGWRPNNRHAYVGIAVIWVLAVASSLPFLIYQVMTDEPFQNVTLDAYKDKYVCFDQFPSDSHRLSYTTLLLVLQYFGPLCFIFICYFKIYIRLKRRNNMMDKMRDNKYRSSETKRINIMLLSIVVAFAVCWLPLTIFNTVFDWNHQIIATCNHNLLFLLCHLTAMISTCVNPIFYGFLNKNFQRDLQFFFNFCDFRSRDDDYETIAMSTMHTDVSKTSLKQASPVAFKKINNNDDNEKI
Outline: as §1

Human opioid (ORL1) = biological target: T7, Human opioid (ORL1) (Homo sapiens, UniProt P41146); test: Radioligand binding, human opioid ORL1 membranes, FlashPlate, [125I]-Nociceptin; settings: compound at 10 μM, [125I]-Nociceptin
T7 construct: purchased Perkin Elmer Biosignal
T7 sequence (P41146 whole entry): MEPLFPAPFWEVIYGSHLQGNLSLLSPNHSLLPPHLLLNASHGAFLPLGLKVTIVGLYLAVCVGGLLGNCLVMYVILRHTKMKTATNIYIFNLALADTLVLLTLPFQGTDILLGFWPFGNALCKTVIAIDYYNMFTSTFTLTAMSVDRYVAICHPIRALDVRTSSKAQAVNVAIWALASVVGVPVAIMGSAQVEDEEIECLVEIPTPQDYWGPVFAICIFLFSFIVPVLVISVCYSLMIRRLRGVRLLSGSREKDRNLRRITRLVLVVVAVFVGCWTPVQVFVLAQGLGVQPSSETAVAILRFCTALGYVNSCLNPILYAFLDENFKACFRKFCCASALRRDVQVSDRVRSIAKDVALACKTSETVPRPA
Outline: as §1

Mouse urotensin (mUR2) = biological target: T8, Mouse urotensin (mUR2) (Mus musculus, UniProt Q8VIH9); test: Radioligand binding, mouse urotensin mUR2 membranes, FlashPlate, [125I]-Urotensin II; settings: compound at 10 μM, [125I]-Urotensin II
T8 construct: purchased Perkin Elmer Biosignal
T8 sequence (Q8VIH9 1-385): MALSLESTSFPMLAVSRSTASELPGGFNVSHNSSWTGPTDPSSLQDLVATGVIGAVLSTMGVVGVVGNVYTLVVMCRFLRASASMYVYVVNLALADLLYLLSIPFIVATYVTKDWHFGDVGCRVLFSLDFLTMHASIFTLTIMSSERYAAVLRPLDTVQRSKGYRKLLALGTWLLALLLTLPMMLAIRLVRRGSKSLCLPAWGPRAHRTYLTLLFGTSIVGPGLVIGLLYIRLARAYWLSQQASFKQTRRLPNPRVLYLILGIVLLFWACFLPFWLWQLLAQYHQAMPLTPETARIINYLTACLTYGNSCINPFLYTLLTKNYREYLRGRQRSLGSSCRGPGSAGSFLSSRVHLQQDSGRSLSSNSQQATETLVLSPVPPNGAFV
Outline: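 Cloned mouse urotensin (mUR2) receptor membranes from Perkin Elmer Biosignal were immobilized in FlashPlate microplates using a proprietary coating. Each well got 19.5 μl buffer, then 0.5 μl of DMSO, reference ligand, or compound. Adding 5 μl of [125I]-Urotensin II, diluted to 5× final concentration in binding buffer, started binding. Plates were sealed with TopSeal-A and incubated 1 hour at room temperature in the dark. Wells were counted for 30 seconds each on a TopCount after a 60-second delay, and percentage inhibition was calculated.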

Human κ-Opioid (KOP) = biological target: T9, Human κ-Opioid (KOP) (Homo sapiens, UniProt P41145); test: Radioligand binding, human κ-opioid (KOP) membranes, filtration, [3H]-Diprenorphine; settings: compound at 10 μM, [3H]-Diprenorphine
T9 construct: purchased Perkin Elmer Biosignal
T9 sequence (P41145 whole entry): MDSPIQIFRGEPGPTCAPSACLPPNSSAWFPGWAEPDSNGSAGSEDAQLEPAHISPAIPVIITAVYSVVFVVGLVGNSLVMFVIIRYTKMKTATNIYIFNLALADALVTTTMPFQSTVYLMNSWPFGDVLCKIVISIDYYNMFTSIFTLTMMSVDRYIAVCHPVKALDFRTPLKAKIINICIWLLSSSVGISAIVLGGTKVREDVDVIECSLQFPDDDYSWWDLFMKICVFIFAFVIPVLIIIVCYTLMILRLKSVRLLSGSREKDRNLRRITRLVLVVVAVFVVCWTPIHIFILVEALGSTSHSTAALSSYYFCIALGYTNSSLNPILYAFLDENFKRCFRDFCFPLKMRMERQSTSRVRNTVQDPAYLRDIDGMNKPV
Outline: (§2)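 Percent inhibition of radioligand binding measured on recombinant human membranes: NK1 with [125I]-Substance P, KOP with [3H]-Diprenorphine. Incubation 1 h at room temperature, then harvest onto 0.3% PEI-soaked filters, cold Tris-HCl pH 7.4 washes and scintillation counting; non-specific binding from reference ligand wells.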

Human Melanocortin (MC3) = biological target: T10, Human Melanocortin (MC3) (Homo sapiens, UniProt P41968); test: Radioligand binding, human melanocortin MC3 membranes, FlashPlate, [125I]-NDP-αMSH; settings: compound at 10 μM, [125I]-NDP-αMSH
T10 construct: purchased Perkin Elmer Biosignal
T10 sequence (P41968 whole entry): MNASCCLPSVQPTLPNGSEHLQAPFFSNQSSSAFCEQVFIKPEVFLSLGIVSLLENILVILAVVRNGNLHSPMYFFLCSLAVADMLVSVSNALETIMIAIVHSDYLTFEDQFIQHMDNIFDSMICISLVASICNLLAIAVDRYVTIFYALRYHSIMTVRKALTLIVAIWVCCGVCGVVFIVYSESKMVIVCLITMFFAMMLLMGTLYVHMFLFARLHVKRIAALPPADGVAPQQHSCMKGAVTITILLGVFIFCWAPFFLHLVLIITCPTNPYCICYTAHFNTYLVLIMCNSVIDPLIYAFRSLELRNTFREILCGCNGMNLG
Outline: as §1

Human neurokinin (NK1) = biological target: T11, Human neurokinin (NK1) (Homo sapiens, UniProt P25103); test: Radioligand binding, human neurokinin NK1 membranes, filtration, [125I]-Substance P; settings: compound at 10 μM, [125I]-Substance P
T11 construct: purchased Perkin Elmer Biosignal
T11 sequence (P25103 whole entry): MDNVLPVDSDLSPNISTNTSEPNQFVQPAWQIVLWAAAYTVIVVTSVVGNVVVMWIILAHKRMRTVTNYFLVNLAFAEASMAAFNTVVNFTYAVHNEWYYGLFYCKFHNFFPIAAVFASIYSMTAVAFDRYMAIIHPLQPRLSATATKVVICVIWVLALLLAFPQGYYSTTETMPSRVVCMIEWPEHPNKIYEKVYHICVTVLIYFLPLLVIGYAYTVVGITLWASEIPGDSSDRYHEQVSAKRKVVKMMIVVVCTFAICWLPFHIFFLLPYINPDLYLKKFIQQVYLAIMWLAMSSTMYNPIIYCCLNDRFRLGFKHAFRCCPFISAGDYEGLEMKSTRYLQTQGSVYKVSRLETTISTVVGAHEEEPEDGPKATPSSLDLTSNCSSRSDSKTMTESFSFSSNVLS
Outline: as §2

T1 sequence (P35372 whole entry): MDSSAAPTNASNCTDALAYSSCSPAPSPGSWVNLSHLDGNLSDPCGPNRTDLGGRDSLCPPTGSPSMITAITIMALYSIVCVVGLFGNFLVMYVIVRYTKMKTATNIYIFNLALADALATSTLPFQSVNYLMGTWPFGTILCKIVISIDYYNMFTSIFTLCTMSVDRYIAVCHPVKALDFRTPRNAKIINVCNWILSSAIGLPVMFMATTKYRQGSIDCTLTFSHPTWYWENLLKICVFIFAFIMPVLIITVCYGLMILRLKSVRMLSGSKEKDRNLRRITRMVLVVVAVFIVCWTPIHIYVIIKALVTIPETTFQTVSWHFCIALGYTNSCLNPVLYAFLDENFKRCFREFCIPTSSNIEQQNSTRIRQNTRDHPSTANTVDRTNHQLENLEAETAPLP

Row | SMILES | A7: inhibition of radioligand binding, human μ-opioid (MOP) (Human μ-opioid (MOP)) | A1: inhibition of radioligand binding, human δ-opioid (DOP) (Human δ-opioid (DOP)) | A6: inhibition of radioligand binding, human melanin-concentrating hormone (MCH1) [1] | A4: inhibition of radioligand binding, human melanocortin (MC4) (Human Melanocortin (MC4)) | A5: inhibition of radioligand binding, human melanocortin (MC5) (Human melanocortin (MC5)) | A9: inhibition of radioligand binding, human neuropeptide Y (NPY-Y1) [2] | A10: inhibition of radioligand binding, human opioid (ORL1) (Human opioid (ORL1)) | A11: inhibition of radioligand binding, mouse urotensin (mUR2) (Mouse urotensin (mUR2)) | A2: inhibition of radioligand binding, human κ-opioid (KOP) (Human κ-Opioid (KOP)) | A3: inhibition of radioligand binding, human melanocortin (MC3) (Human Melanocortin (MC3)) | A8: inhibition of radioligand binding, human neurokinin (NK1) (Human neurokinin (NK1)) | also measured
1 | COC[C@H]1OC(OCc2ccc3ccccc3c2)[C@H](NC(=O)CCCNC(=N)N)[C@@H](OCc2ccc(Cl)cc2)[C@@H]1O (stereo partly drawn) [compound 341] | + (“+” indicates greater than 50% inhibition at 10 μM) | − (“−” indicates less than 50% inhibition at 10 μM) | + (“+” indicates greater than 50% inhibition at 10 μM) | − (“−” indicates less than 50% inhibition at 10 μM) | − (“−” indicates less than 50% inhibition at 10 μM) | − (“−” indicates less than 50% inhibition at 10 μM) | − (“−” indicates less than 50% inhibition at 10 μM) | − (“−” indicates less than 50% inhibition at 10 μM) | − (“−” indicates less than 50% inhibition at 10 μM) | − (“−” indicates less than 50% inhibition at 10 μM) | + (“+” indicates greater than 50% inhibition at 10 μM) | 
2 | CC(=O)N[C@H]1C(NC(=O)CNC(=O)OC(C)(C)C)O[C@H](CO)[C@@H](O)[C@@H]1OCc1ccccc1 (stereo partly drawn) [compound 359] | − (“−” indicates less than 50% inhibition at 10 μM) | − (“−” indicates less than 50% inhibition at 10 μM) | − (“−” indicates less than 50% inhibition at 10 μM) | − (“−” indicates less than 50% inhibition at 10 μM) | − (“−” indicates less than 50% inhibition at 10 μM) | + (“+” indicates greater than 50% inhibition at 10 μM) | − (“−” indicates less than 50% inhibition at 10 μM) | − (“−” indicates less than 50% inhibition at 10 μM) | − (“−” indicates less than 50% inhibition at 10 μM) | − (“−” indicates less than 50% inhibition at 10 μM) | + (“+” indicates greater than 50% inhibition at 10 μM) | 
3 | COCC1OC(OCc2ccc3ccccc3c2)C(NC(=O)CCN)C(OCc2ccccc2)C1O (stereo not drawn) [compound 231] |  |  |  |  |  |  |  |  |  |  |  | A7: inhibition of radioligand binding (Human μ-opioid (MOP); FlashPlate): − (“−” indicates less than 50% inhibition at 10 μM); A1: inhibition of radioligand binding (Human δ-opioid (DOP); FlashPlate): − (“−” indicates less than 50% inhibition at 10 μM); A6: inhibition of radioligand binding ([1]; [125I]-S36057, FlashPlate): − (“−” indicates less than 50% inhibition at 10 μM); A4: inhibition of radioligand binding (Human Melanocortin (MC4); FlashPlate): − (“−” indicates less than 50% inhibition at 10 μM); A5: inhibition of radioligand binding (Human melanocortin (MC5); FlashPlate): − (“−” indicates less than 50% inhibition at 10 μM); A9: inhibition of radioligand binding ([2]; FlashPlate): − (“−” indicates less than 50% inhibition at 10 μM); A10: inhibition of radioligand binding (Human opioid (ORL1); FlashPlate): − (“−” indicates less than 50% inhibition at 10 μM); A11: inhibition of radioligand binding (Mouse urotensin (mUR2); FlashPlate): − (“−” indicates less than 50% inhibition at 10 μM); A2: inhibition of radioligand binding (Human κ-Opioid (KOP); filtration): − (“−” indicates less than 50% inhibition at 10 μM); A3: inhibition of radioligand binding (Human Melanocortin (MC3); FlashPlate): − (“−” indicates less than 50% inhibition at 10 μM); A8: inhibition of radioligand binding (Human neurokinin (NK1); filtration): + (“+” indicates greater than 50% inhibition at 10 μM)
